Structures can show the parent of a compound that is named as a salt. Where two headings read alike, the source gives them in different places.

The assay has as its target T1, Human IP6K1 (Homo sapiens, UniProt Q92551).
T1 construct: GST (N, cleaved yes); made in house; host or cells: C43 E. coli, pGEX-6P-2
In words: IP6K1 high-throughput screen of the Sigma LOPAC (ADP-Glo Max, single point).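 Also: final compound concentration 10µM in 5% DMSO.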 It is filed as biochemical. (In general: In ADP-Glo the light output rises with the ADP produced.)

Setting [1] is: Sigma LOPAC single-point screen, ADP-Glo Max raw signal per well.
The mark [2] stands for this setting: Sigma LOPAC single-point screen, Z-score from plate average and StDev.
[3] abbreviates: LOPAC single-point screen, ADP-Glo Max luminescence raw signal per well.
Where [4] appears, read: LOPAC single-point screen, Z-score relative to plate average and StDev.
Setting [5] is: LOPAC single-point screen, ADP-Glo Max raw signal per well.
Where [6] appears, read: LOPAC single-point screen, Z-score against plate average and StDev.
The mark [7] stands for this setting: LOPAC single-point screen, Z-score from raw signal with plate average and StDev.
Where [8] appears, read: LOPAC single-point screen, Z-score from plate average and StDev.

T1 sequence (Q92551 whole entry): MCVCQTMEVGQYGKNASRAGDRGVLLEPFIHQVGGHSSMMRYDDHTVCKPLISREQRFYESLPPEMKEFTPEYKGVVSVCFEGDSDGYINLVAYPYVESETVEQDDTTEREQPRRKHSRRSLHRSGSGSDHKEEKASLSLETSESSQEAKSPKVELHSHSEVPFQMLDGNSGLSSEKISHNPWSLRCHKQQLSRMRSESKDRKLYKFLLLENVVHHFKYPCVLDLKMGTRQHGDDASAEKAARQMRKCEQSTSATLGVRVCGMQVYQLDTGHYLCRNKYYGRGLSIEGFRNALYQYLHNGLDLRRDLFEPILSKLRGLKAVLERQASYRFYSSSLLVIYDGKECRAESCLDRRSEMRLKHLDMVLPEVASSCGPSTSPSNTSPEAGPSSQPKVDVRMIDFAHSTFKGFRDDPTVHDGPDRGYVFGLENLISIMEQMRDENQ

`CC12NC(Cc3ccccc31)c1ccccc12.O=C(O)/C=C\C(=O)O` (single isomer, unassigned; (+)) [(+)-MK-801 hydrogen maleate]: the “Raw Signal” value under setting [1] is on record as 58157. This compound yielded a Z-score under setting [2] of 0.6324.

With `CC(=O)OC(C)C[N+](C)(C)C.[Cl-]` (stereo not drawn) [Acetyl-beta-methylcholine chloride], the “Raw Signal” value under setting [3] stood at 54689. Also, the Z-score under setting [4] is given as -0.5679.

With `NCCCC(=O)O` [GABA], the “Raw Signal” value under setting [1] was found to be 63549. The Z-score under setting [2] turned out to be 0.9926.

`CC(=O)NCCc1ccc(O)c(O)c1.O` [N-Acetyldopamine monohydrate]: under setting [1], the “Raw Signal” value came out at 60782. Under setting [2], this compound returned a Z-score of 0.5053.

Regarding `O=C1CN(/N=C/c2ccc(-c3ccc([N+](=O)[O-])cc3)o2)C(O)=N1` [Dantrolene sodium], the “Raw Signal” value under setting [3] worked out at 49715. The same compound yielded a Z-score under setting [4] of -1.107.

Consider `C[N+](C)(C)CCOC(=O)CCC(=O)OCC[N+](C)(C)C` [Succinylcholine chloride], for which the “Raw Signal” value under setting [3] stood at 51489. Under setting [4], this compound registered a Z-score of -0.881.

Take `CN(C)C(=O)N=NC(=O)N(C)C` [N,N,N ,N -Tetramethylazodicarboxamide]: under setting [1], the “Raw Signal” value is 57249. In addition, the Z-score under setting [2] is given as 0.4228.

For `CC1(C)CCC=[N+]1[O-]` [5,5-Dimethyl-1-pyrroline-N-oxide], the “Raw Signal” value under setting [3] amounted to 51954. The same compound came in with a Z-score under setting [4] of -0.6525.

As to `CC(C)NC[C@H](O)COc1cccc2ccccc12` [(S)-Propranolol hydrochloride], under setting [1], the “Raw Signal” value was determined as 59687. The Z-score under setting [2] is reported as 0.7117.

In the case of `COc1cc(C[C@@H](C)N)c(OC)cc1I.Cl` [( R)-(-)-DOI hydrochloride], under setting [5], the “Raw Signal” value is on record as 54807. The same compound showed a Z-score under setting [6] of -0.07312.

Turning to `O=c1c(O)c(-c2ccc(O)c(O)c2)oc2cc(O)cc(O)c12` [Quercetin dihydrate], the “Raw Signal” value under setting [3] was 52548. Also, under setting [4], the Z-score is on record as -0.6753.

As for `C[N+]1(C)[C@@H]2C[C@@H](OC(=O)[C@H](CO)c3ccccc3)C[C@H]1[C@@H]1O[C@@H]12` [(-)-Scopolamine methyl bromide], under setting [5], the “Raw Signal” value is given as 55432. The Z-score under setting [7] was -0.115.

Turning to `N[C@H](CCCCCP(=O)(O)O)C(=O)O` [D(-)-2-Amino-7-phosphonoheptanoic acid], under setting [1], the “Raw Signal” value worked out at 62778. The compound further had a Z-score under setting [2] of 0.8568.

As to `C[C@H]1C[C@H]2[C@@H]3CCC4=CC(=O)C=C[C@]4(C)[C@@]3(F)[C@@H](O)C[C@]2(C)[C@@]1(O)C(=O)CO` [Betamethasone], the “Raw Signal” value under setting [5] was determined as 58863. The compound further displayed a Z-score under setting [6] of 0.1673.

Consider `O=[N+]([O-])c1cccc2c(Br)n[nH]c12` [3-Bromo-7-nitroindazole], for which the “Raw Signal” value under setting [3] is on record as 68484. Under setting [8], the Z-score stood at 1.862.

Consider `Cc1nnc2ccc(-c3cccc(C(F)(F)F)c3)nn12`, for which the “Raw Signal” value under setting [5] was 54310. In addition, the Z-score under setting [6] is -0.01403.

`OC[C@H]1O[C@@H](n2cnc3c(NC4CCCC4)ncnc32)[C@H](O)[C@@H]1O` [N6-Cyclopentyladenosine]: the “Raw Signal” value under setting [5] amounted to 55487. The compound also displayed a Z-score under setting [7] of -0.4273.

As for `NCCNC(=O)Cc1ccc(NC(=O)Cc2ccc(Nc3ncnc4c3ncn4[C@@H]3O[C@H](CO)[C@@H](O)[C@H]3O)cc2)cc1` [Adenosine amine congener], the “Raw Signal” value under setting [5] is on record as 58651. Moreover, the Z-score under setting [6] is 0.13.

For the compound `COc1cc2c(cc1C(F)(F)F)N(C(=O)Nc1cc(F)cc(-c3cccnc3)c1)CC2` [SB 228357], the “Raw Signal” value under setting [1] is on record as 58844. This compound yielded a Z-score under setting [2] of 0.7468.

Consider `O=P(O)(O)C(Cl)(Cl)P(=O)(O)O` [Clodronic acid], for which the “Raw Signal” value under setting [5] came out at 56368. For the same compound, under setting [6], the Z-score turned out to be 0.2439.

With Oligomycin A, the “Raw Signal” value under setting [5] came to 55071. The compound also registered a Z-score under setting [6] of 0.1138.

As to `CC(=N)NCCCC[C@H](N)C(=O)O.Cl` [L-N6-(1-Iminoethyl)lysine hydrochloride], the “Raw Signal” value under setting [5] amounted to 52153. Under setting [7], the Z-score is -0.3765.

Regarding `Cc1ccc(=O)n(-c2ccccc2)c1` [Pirfenidone], the “Raw Signal” value under setting [5] was 52089. Under setting [7], the Z-score is reported as -0.3872.

Turning to `CN(C)CCC(c1ccc(Br)cc1)c1ccccn1.O=C(O)/C=C\C(=O)O` (racemic) [(±)-Brompheniramine maleate], the “Raw Signal” value under setting [5] is given as 59748. The same compound showed a Z-score under setting [6] of 0.3232.

In the case of `CC(=O)Oc1ccccc1C(=O)O` [Acetylsalicylic acid], under setting [3], the “Raw Signal” value is 52950. Under setting [4], this compound came in with a Z-score of -0.8741.

Regarding `O=c1c2ccccc2nc2n1CCc1c-2[nH]c2ccccc12` [Rutaecarpine], the “Raw Signal” value under setting [5] is 54118. Also, the Z-score under setting [7] is listed as -0.3703.

Take `CNCCc1c[nH]c2ccc(O)cc12.O=C(O)C(=O)O`: under setting [5], the “Raw Signal” value was determined as 53556. For the same compound, under setting [7], the Z-score is -0.1407.

In the case of `CC(/C=C/c1cccc(Oc2ccc(F)cc2)c1)N(O)C(N)=O` (centres unmarked) [BWB70C], the “Raw Signal” value under setting [5] came out at 58720. Under setting [6], this compound returned a Z-score of 0.1421.

For the compound `NC(=O)c1cccc(N)c1` [3-aminobenzamide], the “Raw Signal” value under setting [5] turned out to be 56496. Further, the Z-score under setting [7] was -0.2496.

Turning to `Nc1nc2ccc(Cl)cc2c2nc(-c3ccco3)nn12` [CGS-15943], the “Raw Signal” value stood at 60608 and the Z-score amounted to 1.105.

Consider MDL 26,630 trihydrochloride, for which, under setting [5], the “Raw Signal” value is on record as 53612. Further, the Z-score under setting [7] was -0.1313.

Regarding `N[C@H](CCC(=O)NCS(=O)(=O)O)C(=O)O` [gamma-D-Glutamylaminomethylsulfonic acid], under setting [1], the “Raw Signal” value came out at 58321. The compound also returned a Z-score under setting [2] of 0.6405.

As for `COc1ccc(CCN(C)CCCC(C#N)(c2ccc(OC)c(OC)c2)C(C)C)cc1OC.Cl` (racemic) [(±)-Verapamil hydrochloride], the “Raw Signal” value under setting [3] is on record as 63315. Under setting [8], this compound showed a Z-score of 1.417.

Regarding `CC(C)NNC(=O)c1ccncc1.O=P(O)(O)O` [Iproniazid phosphate], the “Raw Signal” value under setting [1] was found to be 60567. Under setting [2], this compound came in with a Z-score of 1.037.

With `CN1CCN(CCCN2c3ccccc3Sc3ccc(Cl)cc32)CC1` [Prochlorperazine dimaleate], the “Raw Signal” value under setting [1] is 58817. This compound displayed a Z-score under setting [2] of 0.5427.

On to `N#CC(C#N)=C(N)/C(C#N)=C/c1ccc(O)cc1` [Tyrphostin AG 112], for which the “Raw Signal” value under setting [3] is recorded as 52903. This compound also yielded a Z-score under setting [4] of -0.6063.

In the case of `O=C(/C=C/c1ccc(O)c(O)c1)OCCc1ccccc1` [Caffeic acid phenethyl ester], the “Raw Signal” value under setting [3] was 53915. Moreover, under setting [4], the Z-score was -0.7042.

`O=C(CCCN1CCC(O)(c2cccc(C(F)(F)F)c2)CC1)c1ccc(F)cc1` [Trifluperidol hydrochloride]: the “Raw Signal” value under setting [5] is reported as 56876. Besides, under setting [6], the Z-score worked out at 0.1656.

As for `CN1CC[C@@]2(C)c3cc(O)ccc3N(C)[C@@H]12.O=C(O)/C=C/C(=O)O` [(-)-Eseroline fumarate], under setting [1], the “Raw Signal” value worked out at 57638. The compound further gave a Z-score under setting [2] of 0.5018.

Regarding `CSC(N)=NCCC[C@H](N)C(=O)O` [S-Methyl-L-thiocitrulline acetate], under setting [5], the “Raw Signal” value was found to be 53034. The same compound came in with a Z-score under setting [7] of -0.2284.

Consider `CCCCc1ccc(C(=O)O)nc1` [Fusaric acid], for which the “Raw Signal” value under setting [3] was found to be 50850. This compound came in with a Z-score under setting [4] of -0.8767.

`COc1cc2c(c(OC)c1OC)-c1ccc(OC)c(=O)cc1[C@@H](NC(C)=O)CC2` [Colchicine]: the “Raw Signal” value under setting [5] is on record as 58343. In addition, the Z-score under setting [6] is given as 0.07572.

As for `NC12CC3CC(CC(C3)C1)C2` [Amantadine hydrochloride], under setting [3], the “Raw Signal” value is listed as 68782. Further, the Z-score under setting [8] stood at 1.914.

`C#CC(N)CCC(=O)O` (centres unmarked) [gamma-Acetylinic GABA]: the “Raw Signal” value under setting [3] worked out at 54991. Under setting [4], this compound showed a Z-score of -0.5147.

On to `O=C(O)C1=CCNCC1` [Isoguvacine hydrochloride], for which the “Raw Signal” value under setting [5] was 53600. This compound also registered a Z-score under setting [7] of -0.3182.

Take `COc1cc2nc(N3CCN(C(=O)C4CCCO4)CC3)nc(N)c2cc1OC` (centres unmarked) [Terazosin hydrochloride]: the “Raw Signal” value under setting [5] turned out to be 54152. Besides, under setting [7], the Z-score was -0.3637.

Regarding `O=C(O)CP(=O)(O)O` [Phosphonoacetic acid], the “Raw Signal” value under setting [5] is 54653. The same compound had a Z-score under setting [7] of -0.2663.

For `O=C([O-])/C=C/C(O)c1ccc(Cl)cc1.[Na+]` (centres unmarked) [NCS-356], under setting [1], the “Raw Signal” value is on record as 58969. The Z-score under setting [2] turned out to be 0.7688.

Turning to `CN(C)CCCC1(c2ccc(F)cc2)OCc2cc(C#N)ccc21` (centres unmarked) [Citalopram hydrobromide], the “Raw Signal” value under setting [5] is reported as 58251. This compound also came in with a Z-score under setting [6] of 0.05951.

`CCOC(=O)N1CCC(=C2c3ccc(Cl)cc3CCc3cccnc32)CC1` [Loratadine]: the “Raw Signal” value under setting [3] amounted to 49648. The compound further had a Z-score under setting [4] of -0.7974.

As for `CCN(CC)CCOCCOC(=O)C1(c2ccccc2)CCCC1` [Carbetapentane citrate], the “Raw Signal” value under setting [3] is recorded as 67390. The compound further had a Z-score under setting [8] of 1.669.

As for `O=C(CCCN1CC=C(n2c(=O)[nH]c3ccccc32)CC1)c1ccc(F)cc1` [Droperidol], under setting [3], the “Raw Signal” value is recorded as 49359. The Z-score under setting [4] is recorded as -1.18.

Consider `Cc1ccc(S(=O)(=O)NC(=O)NN2CCCCCC2)cc1` [Tolazamide], for which the “Raw Signal” value under setting [3] was 64192. Besides, under setting [8], the Z-score worked out at 1.587.

As for `CC1(C)CCC(NC(=O)[C@@H](N)CCC(=O)O)CC1` [CR 2249], the “Raw Signal” value under setting [5] worked out at 52015. Under setting [7], this compound gave a Z-score of -0.3997.

For the compound `CC(CCc1ccccc1)NCC(O)c1ccc(O)c(C(N)=O)c1` (centres unmarked) [Labetalol hydrochloride], under setting [5], the “Raw Signal” value was determined as 53329. The Z-score under setting [7] is given as -0.1789.

The record behind these values is article PMC5706701, “Development of a homogenous high-throughput assay for inositol hexakisphosphate kinase 1 activity” (PLoS ONE, 2017).
